Assay results: the supplement of paper PMC6045584
± gives the standard deviation of the averaged measurements.

Experiments:
[1] = compound: CCN(CC)CCNC(=O)c1c(C)[nH]c(/C=C2\C(=O)Nc3ccc(F)cc32)c1C [SUNITINIB]; assay: surviving fraction relative to DMSO-only wells; higher = less growth inhibition; settings: exposure time: 5 days
Procedure, shortened: (§1)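 Surviving fraction is CellTiter-Glo luminescence divided by the median of wells given DMSO only. For this, log-phase tumour cell lines went into 384-well plates at 250–500 cells per well and, 24 hours later, into five days of continuous inhibitor exposure at 0.5, 1, 5, 10, 50, 100, 500 and 1000 nM. Lines were screened three times and retained only if replicate Pearson r >0.7 and median Z' >0.3.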

[2] = compound: CN(Cc1cnc2nc(N)nc(N)c2n1)c1ccc(C(=O)N[C@@H](CCC(=O)O)C(=O)O)cc1 [METHOTREXATE]; assay: as above; settings: exposure time: 5 days
Procedure, shortened: as §1

## C33A CERVIX
[1]; 0.5 nM
  surviving fraction: 1.1 ± 0.13
[1]; 5 nM
  surviving fraction: 1.18 ± 0.12
[1]; 50 nM
  surviving fraction: 1.12 ± 0.049
[1]; 100 nM
  surviving fraction: 1.22 ± 0.1
[1]; 500 nM
  surviving fraction: 0.647 ± 0.081
[1]; 1000 nM
  surviving fraction: 0.339 ± 0.019
[2]; 0.5 nM
  surviving fraction: 1.01 ± 0.15
[2]; 1 nM
  surviving fraction: 0.936 ± 0.025
[2]; 5 nM
  surviving fraction: 0.987 ± 0.11
[2]; 10 nM
  surviving fraction: 0.519 ± 0.048
[2]; 50 nM
  surviving fraction: 0.592 ± 0.075
[2]; 100 nM
  surviving fraction: 0.585 ± 0.05
[2]; 500 nM
  surviving fraction: 0.566 ± 0.034
[2]; 1000 nM
  surviving fraction: 0.557 ± 0.034

## CAL72 BONE
[1]; 0.5 nM
  surviving fraction: 0.977 ± 0.016
[1]; 1 nM
  surviving fraction: 0.995 ± 0.028
[1]; 100 nM
  surviving fraction: 1.058 ± 0.0023
[1]; 500 nM
  surviving fraction: 0.92 ± 0.0072
[1]; 1000 nM
  surviving fraction: 0.663 ± 0.044
[2]; 0.5 nM
  surviving fraction: 1.04 ± 0.15
[2]; 1 nM
  surviving fraction: 1.02 ± 0.13
[2]; 5 nM
  surviving fraction: 1.03 ± 0.13
[2]; 10 nM
  surviving fraction: 1.04 ± 0.11
[2]; 50 nM
  surviving fraction: 0.641 ± 0.051
[2]; 100 nM
  surviving fraction: 0.323 ± 0.061
[2]; 500 nM
  surviving fraction: 0.301 ± 0.054
[2]; 1000 nM
  surviving fraction: 0.303 ± 0.068

## G292 BONE
[1]; 0.5 nM
  surviving fraction: 0.903 ± 0.05
[1]; 1 nM
  surviving fraction: 0.947 ± 0.037
[1]; 5 nM
  surviving fraction: 0.938 ± 0.048
[1]; 10 nM
  surviving fraction: 0.904 ± 0.027
[1]; 50 nM
  surviving fraction: 0.909 ± 0.032
[1]; 100 nM
  surviving fraction: 0.887 ± 0.061
[1]; 500 nM
  surviving fraction: 0.553 ± 0.014
[1]; 1000 nM
  surviving fraction: 0.306 ± 0.0087
[2]; 0.5 nM
  surviving fraction: 1.01 ± 0.048
[2]; 1 nM
  surviving fraction: 1.07 ± 0.032
[2]; 5 nM
  surviving fraction: 1.04 ± 0.069
[2]; 10 nM
  surviving fraction: 1.06 ± 0.042
[2]; 50 nM
  surviving fraction: 1.02 ± 0.042
[2]; 100 nM
  surviving fraction: 1.04 ± 0.029
[2]; 500 nM
  surviving fraction: 1.017 ± 0.0058
[2]; 1000 nM
  surviving fraction: 1.01 ± 0.024

## HCC1395 BREAST
[1]; 0.5 nM
  surviving fraction: 0.977 ± 0.037
[1]; 1 nM
  surviving fraction: 0.829 ± 0.066
[1]; 5 nM
  surviving fraction: 0.9396 ± 0.0017
[1]; 10 nM
  surviving fraction: 0.969 ± 0.094
[1]; 50 nM
  surviving fraction: 1.09 ± 0.11
[1]; 100 nM
  surviving fraction: 1.06 ± 0.17
[1]; 500 nM
  surviving fraction: 0.971 ± 0.046
[1]; 1000 nM
  surviving fraction: 1.01 ± 0.12
[2]; 0.5 nM
  surviving fraction: 1.18 ± 0.047
[2]; 1 nM
  surviving fraction: 1.08 ± 0.073
[2]; 5 nM
  surviving fraction: 1.17 ± 0.035
[2]; 10 nM
  surviving fraction: 1.17 ± 0.1
[2]; 50 nM
  surviving fraction: 1.12 ± 0.058
[2]; 100 nM
  surviving fraction: 1.26 ± 0.026
[2]; 500 nM
  surviving fraction: 1.03 ± 0.16
[2]; 1000 nM
  surviving fraction: 1.09 ± 0.062

## HUO3N1 BONE
[1]; 0.5 nM
  surviving fraction: 0.907 ± 0.082
[1]; 1 nM
  surviving fraction: 0.88 ± 0.056
[1]; 5 nM
  surviving fraction: 0.8743 ± 0.0058
[1]; 10 nM
  surviving fraction: 0.82 ± 0.034
[1]; 50 nM
  surviving fraction: 0.817 ± 0.035
[1]; 100 nM
  surviving fraction: 0.801 ± 0.036
[1]; 500 nM
  surviving fraction: 0.64 ± 0.0053
[1]; 1000 nM
  surviving fraction: 0.379 ± 0.016
[2]; 0.5 nM
  surviving fraction: 1.05 ± 0.032
[2]; 1 nM
  surviving fraction: 1.04 ± 0.059
[2]; 5 nM
  surviving fraction: 1.084 ± 0.008
[2]; 10 nM
  surviving fraction: 1.08 ± 0.016
[2]; 50 nM
  surviving fraction: 0.991 ± 0.041
[2]; 100 nM
  surviving fraction: 0.731 ± 0.029
[2]; 500 nM
  surviving fraction: 0.51 ± 0.035
[2]; 1000 nM
  surviving fraction: 0.51 ± 0.046

## LNCAP PROSTATE
[1]; 0.5 nM
  surviving fraction: 1.12 ± 0.06
[1]; 1 nM
  surviving fraction: 1.19 ± 0.081
[1]; 10 nM
  surviving fraction: 1.01 ± 0.12
[1]; 50 nM
  surviving fraction: 1.08 ± 0.093
[1]; 100 nM
  surviving fraction: 1.14 ± 0.037
[1]; 500 nM
  surviving fraction: 0.854 ± 0.11
[1]; 1000 nM
  surviving fraction: 0.45 ± 0.033
[2]; 0.5 nM
  surviving fraction: 0.965 ± 0.021
[2]; 1 nM
  surviving fraction: 0.957 ± 0.042
[2]; 5 nM
  surviving fraction: 0.961 ± 0.059
[2]; 10 nM
  surviving fraction: 0.851 ± 0.061
[2]; 50 nM
  surviving fraction: 0.575 ± 0.011
[2]; 100 nM
  surviving fraction: 0.5 ± 0.024
[2]; 500 nM
  surviving fraction: 0.428 ± 0.018
[2]; 1000 nM
  surviving fraction: 0.422 ± 0.032

## SCC003 HEADNECK
[1]; 0.5 nM
  surviving fraction: 0.834 ± 0.071
[1]; 1 nM
  surviving fraction: 0.807 ± 0.064
[1]; 5 nM
  surviving fraction: 0.851 ± 0.036
[1]; 10 nM
  surviving fraction: 0.784 ± 0.058
[1]; 50 nM
  surviving fraction: 0.97 ± 0.07
[1]; 100 nM
  surviving fraction: 0.919 ± 0.017
[1]; 500 nM
  surviving fraction: 0.495 ± 0.02
[1]; 1000 nM
  surviving fraction: 0.265 ± 0.034
[2]; 0.5 nM
  surviving fraction: 1.09 ± 0.11
[2]; 1 nM
  surviving fraction: 1.1 ± 0.033
[2]; 5 nM
  surviving fraction: 1.16 ± 0.03
[2]; 10 nM
  surviving fraction: 0.87 ± 0.052
[2]; 50 nM
  surviving fraction: 0.594 ± 0.021
[2]; 100 nM
  surviving fraction: 0.541 ± 0.026
[2]; 500 nM
  surviving fraction: 0.549 ± 0.042
[2]; 1000 nM
  surviving fraction: 0.509 ± 0.037
